From patent US20250129103A1, “METHODS FOR TREATMENT OF CANCER” (Frontier Medicines Corporation, priority 2022, published 2025) come the findings set out here.

Data set [1] concerns the target KRAS G12C (GMPPNP-loaded) and cRAF (Ras-binding domain) interaction (Homo sapiens (Human), UniProt P01116, C118S/C51S/C80L/G12C). Put plainly: Inhibition of KRAS G12C and cRAF binding (AlphaScreen). Conditions: KRAS G12C loaded with GMPPNP, cRaf RBD, 2 hours preincubation; read-out: Raf-1 RBD K-Ras IC50. In outline: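 GMPPNP-loaded KRAS G12C in 25 mM Hepes pH 7.4, 150 mM NaCl, 5 mM MgCl2, 0.01% Triton X-100, 10 μM GMPPNP, 2% DMSO, preincubated with compound 2 h at room temperature. cRAF RBD plus AlphaScreen beads then added for 60-90 min; signal read at 570 nm.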

Data set [2] can be described thus: Determination of logD (1-octanol / phosphate buffer pH 7.4). In kind it is physicochemical. The note with it: 1-octanol/phosphate buffer, pH 7.4, pH 7.4, 1-octanol/phosphate buffer; read-out: Log D, pH 7.4. In short, it runs like this:
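Shake-flask partition between 1-octanol and 100 mM phosphate buffer pH 7.4, each phase presaturated with the other overnight. Tubes shaken 1 h at 800 rpm, room temperature, then centrifuged. Both phases quantified by LCMS and logD calculated from the ratio.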

Data set [3] can be described thus: Determination of kinetic solubility (pH 7.4). It is filed as physicochemical. Conditions: phosphate buffer, pH 7.4, aqueous buffer, kinetic from dmso stock, 50 mM phosphate buffer pH 7.4, read-out: Ksol, pH 7.4. In outline:
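Sample mixed with 50 mM phosphate buffer, pH 7.4, vortexed, then shaken 2 h at room temperature and centrifuged. Filtrate analysed by HPLC-UV and LC-MS/MS, with solubility read from peak areas against a standard calibration curve.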

The IC50 is the concentration at which inhibition is half-maximal.

In brackets after ≈: the same amount, converted by molar mass. Some results are limits rather than exact numbers.

Chain of KRAS G12C (GMPPNP-loaded) and cRAF (Ras-binding domain) interaction (P01116 other isoform, or with tags, fused parts or gaps G12C/C51S/C80L/C118S): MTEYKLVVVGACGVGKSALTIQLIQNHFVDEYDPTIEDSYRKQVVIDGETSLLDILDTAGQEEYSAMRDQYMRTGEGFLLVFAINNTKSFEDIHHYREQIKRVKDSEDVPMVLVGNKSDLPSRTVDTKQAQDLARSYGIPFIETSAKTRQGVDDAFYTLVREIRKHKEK

For the molecule `CCc1c(F)ccc2cccc(-c3ncc4c(N5CCN(C(=O)/C=C/CN6CC7CC(C6)O7)[C@@H](CC#N)C5)nc(OC[C@@]56CCCN5C[C@H](F)C6)nc4c3F)c12` [Compound 242], in data set [1], the 50% inhibitory concentration (IC50) was below 10 nM. For the same molecule, the logD in data set [2] is 3.38. Besides, in data set [3], the solubility kinetic at 2 h amounted to 93.3 µg/mL (≈ 122 µM).
Take `N#CC[C@H]1CN(c2nc(OC[C@@]34CCCN3C[C@H](F)C4)nc3c(F)c(-c4cccc5cccc(F)c45)ncc23)CCN1C(=O)/C=C/CN1CC2CCC(C1)O2` [Compound 245]: the IC50 in data set [1] was in the range of 10 to 100 nM. The logD in data set [2] is 2.91. Besides, in data set [3], the solubility kinetic at 2 h was determined as 74.4 µg/mL (≈ 98.8 µM).
The matching figures for `Cc1c(F)ccc2cccc(-c3ncc4c(N5CCN(C(=O)/C=C/CN6CCOCC6)[C@@H](CC#N)C5)nc(OC[C@@]56CCCN5C[C@H](F)C6)nc4c3F)c12` [Compound 246]: 10 to 100 nM, 2.96 and 69.5 µg/mL (≈ 93.9 µM).
`Cc1c(F)ccc2cccc(-c3ncc4c(N5CCN(C(=O)/C=C/CN6CC7CC(C6)O7)[C@@H](CC#N)C5)nc(OC[C@@]56CCCN5C[C@H](F)C6)nc4c3F)c12` [Compound 247]: the concentration for half-maximal inhibition (IC50) in data set [1] was below 10 nM. Moreover, the logD in data set [2] was determined as 3.02. Further, the solubility kinetic at 2 h in data set [3] worked out at 88.6 µg/mL (≈ 118 µM).
The matching figures for `N#CC[C@H]1CN(c2nc(OC[C@@]34CCCN3C[C@H](F)C4)nc3c(F)c(-c4cccc5ccc(F)c(F)c45)ncc23)CCN1C(=O)/C=C/CN1CC2CCC(C1)O2` [Compound 249]: below 10 nM, 3.38 and 71.1 µg/mL (≈ 92.2 µM).
The matching figures for `Cc1nccc(/C=C/C(=O)N2CCN(c3nc(OC[C@@]45CCCN4C[C@H](F)C5)nc4c(F)c(-c5cccc6ccc(F)c(C)c56)ncc34)C[C@@H]2CC#N)n1` [Compound 254]: below 10 nM, 3.79 and 4.99 µg/mL (≈ 6.8 µM).
The matching figures for `C#Cc1c(F)ccc2cccc(-c3ncc4c(N5CCN(C(=O)/C=C/CN6CC7CC(C6)O7)[C@@H](CC#N)C5)nc(OC[C@@]56CCCN5C[C@H](F)C6)nc4c3F)c12` [Compound 256]: below 10 nM, 2.71 and 101 µg/mL (≈ 133 µM).
On to `N#CC[C@H]1CN(c2nc(OC[C@@]34CCCN3C[C@H](F)C4)nc3c(F)c(-c4cccc5cccc(Cl)c45)ncc23)CCN1C(=O)/C=C/CN1C[C@H]2CC[C@@H]1CO2` [Compound 258], for which the concentration for half-maximal inhibition (IC50) in data set [1] was below 10 nM. Also, the logD in data set [2] is 2.81. For the same molecule, the solubility kinetic at 2 h in data set [3] was determined as 169 µg/mL (≈ 219 µM).
The matching figures for `N#CC[C@H]1CN(c2nc(OC[C@@]34CCCN3C[C@H](F)C4)nc3c(F)c(-c4cccc5cccc(Cl)c45)ncc23)CCN1C(=O)/C=C/CN1C[C@@H]2CC[C@H]1CO2` [Compound 259]: below 10 nM, 2.92 and 147 µg/mL (≈ 191 µM).
Regarding `N#CC[C@H]1CN(c2nc(OC[C@@]34CCCN3C[C@H](F)C4)nc3c(F)c(-c4cccc(Cl)c4C4CC4)ncc23)CCN1C(=O)/C=C/CN1CC2CCC(C1)O2` [Compound 261], in data set [1], the half-maximal inhibitory concentration (IC50) was 10 to 100 nM. Besides, the logD in data set [2] was determined as 3.14. Moreover, in data set [3], the solubility kinetic at 2 h came to 56.7 µg/mL (≈ 74.7 µM).
For `Cc1c(Cl)cccc1-c1ncc2c(N3CCN(C(=O)/C=C/CN4[C@@H]5CC[C@H]4COC5)[C@@H](CC#N)C3)nc(OC[C@@]34CCCN3C[C@H](F)C4)nc2c1F` [Compound 273], in that order: below 10 nM, 3.1 and 124 µg/mL (≈ 169 µM).
For `N#CC[C@H]1CN(c2nc(OC[C@@]34CCCN3C[C@H](F)C4)nc3c(F)c(-c4cccc5cccc(Cl)c45)ncc23)CCN1C(=O)/C=C/CN1CCOC2CC21` (stereo partly drawn) [Compound 274], in that order: 10 to 100 nM, 3.14 and 76.2 µg/mL (≈ 101 µM).
In the case of `N#CC[C@H]1CN(c2nc(OC[C@@]34CCCN3C[C@H](F)C4)nc3c(F)c(-c4cccc(Cl)c4C(F)F)ncc23)CCN1C(=O)/C=C/CN1[C@@H]2CC[C@H]1COC2` [Compound 275], the IC50 in data set [1] is below 10 nM. For the same molecule, in data set [2], the logD worked out at 2.73. Further, in data set [3], the solubility kinetic at 2 h is 106 µg/mL (≈ 137 µM).
For `N#CC[C@H]1CN(c2nc(OC[C@@]34CCCN3C[C@H](F)C4)nc3c(F)c(-c4cccc(Cl)c4C4CC4)ncc23)CCN1C(=O)/C=C/CN1C[C@H]2C[C@@H]1CO2` [Compound 276], in that order: below 10 nM, 3 and 108 µg/mL (≈ 145 µM).
For `N#CC[C@H]1CN(c2nc(OC[C@@]34CCCN3C[C@H](F)C4)nc3c(F)c(-c4cccc(Cl)c4C4CC4)ncc23)CCN1C(=O)/C=C/CN1C2COCC1C2` [Compound 278], in that order: below 10 nM, 3.3 and 66.6 µg/mL (≈ 89.4 µM).
For `C#Cc1c(F)ccc2cccc(-c3ncc4c(N5CCN(C(=O)/C=C/CN6CC7CCC(C6)O7)[C@@H](CC#N)C5)nc(OC[C@@]56CCCN5C[C@H](F)C6)nc4c3F)c12` [Compound 285], in that order: below 10 nM, 3.54 and 70.4 µg/mL (≈ 90.6 µM).
Regarding `CO[C@H]1CCN(C/C=C/C(=O)N2CCN(c3nc(OC[C@@]45CCCN4C[C@H](F)C5)nc4c(F)c(-c5cccc(Cl)c5C5CC5)ncc34)C[C@@H]2CC#N)C1` [Compound 287], in data set [1], the half-inhibitory concentration (IC50) was below 10 nM. The logD in data set [2] turned out to be 3.23. Further, the solubility kinetic at 2 h in data set [3] was 114 µg/mL (≈ 152 µM).
For `N#CC[C@H]1CN(c2nc(OC[C@@]34CCCN3C[C@H](F)C4)nc3c(F)c(-c4ccccc4C(F)F)ncc23)CCN1C(=O)/C=C/CN1[C@@H]2CC[C@H]1COC2` [Compound 289], in that order: 10 to 100 nM, 2.16 and 140 µg/mL (≈ 190 µM).
For `N#CC[C@H]1CN(c2nc(OC[C@@]34CCCN3C[C@H](F)C4)nc3c(F)c(-c4cccc(F)c4C(F)(F)F)ncc23)CCN1C(=O)/C=C/CN1[C@@H]2CC[C@H]1COC2` [Compound 292], in that order: below 10 nM, 2.54 and 112 µg/mL (≈ 145 µM).
The matching figures for `N#CC[C@H]1CN(c2nc(OC[C@@]34CCCN3C[C@H](F)C4)nc3c(F)c(-c4cccc(Cl)c4C(F)(F)F)ncc23)CCN1C(=O)/C=C/CN1C[C@@H]2C[C@H]1CO2` [Compound 293]: below 10 nM, 2.54 and 96.7 µg/mL (≈ 125 µM).
As to `N#CC[C@H]1CN(c2nc(OC[C@@]34CCCN3C[C@H](F)C4)nc3c(F)c(-c4cccc(Cl)c4C(F)(F)F)ncc23)CCN1C(=O)/C=C/CN1C[C@H]2C[C@@H]1CO2` [Compound 294], the concentration for half-maximal inhibition (IC50) in data set [1] is below 10 nM. Also, the logD in data set [2] turned out to be 2.59. Moreover, in data set [3], the solubility kinetic at 2 h was determined as 127 µg/mL (≈ 165 µM).
The matching figures for `N#CC[C@H]1CN(c2nc(OC[C@@]34CCCN3C[C@H](F)C4)nc3c(F)c(-c4cccc(Cl)c4C(F)(F)F)ncc23)CCN1C(=O)/C=C/CN1CC2CC(C1)O2` [Compound 295]: below 10 nM, 2.75 and 102 µg/mL (≈ 132 µM).
The matching figures for `Cc1cc(/C=C/C(=O)N2CCN(c3nc(OC[C@@]45CCCN4C[C@H](F)C5)nc4c(F)c(-c5cccc(Cl)c5C(F)(F)F)ncc34)C[C@@H]2CC#N)nc(C)n1` [Compound 297]: 10 to 100 nM, 3.89 and 29.7 µg/mL (≈ 38.6 µM).
